Assay results: a melting point compilation (Tetko et al.; mined from patent text by program, amines drawn as free bases though some values may be those of a salt)

SMILES | melting point
COc1cc(-c2cnc3[nH]cc(C(=O)NC4CCCOC4)c3n2)cc(OC)c1OC (stereo not given) | 191 to 192 °C
CN1CCCC1CNC(=O)c1cc(S(=O)(=O)N(C)C)cc2c1OCCO2 (stereo not given) | 165 to 166 °C
O=C(C(=O)c1ccc(Cl)cc1Cl)c1ccncc1 | 85 °C
N#Cc1cncc(I)c1Cl | 120 to 122 °C
Cc1nc2c(C)cccn2c(=O)c1CCN1CCC(c2noc3cc(F)ccc23)CC1 | 200 °C
O=C(Cn1c(-c2ccccc2)ccc(NC(=O)OCc2ccc(C(=O)O)cc2)c1=O)NC(Cc1ccccc1)C(=O)C(F)(F)F (stereo not given) | 214 to 216 °C
COc1ccc(-c2cc(N)c(Cl)c(C(=O)O)n2)cc1 | 192 °C
CN(C)c1ccc(NC(=O)N(CC2CCCCC2)C[C@H]2CCCC[C@H]2CN(CC2CCCCC2)C(=O)Nc2ccc(N(C)C)cc2)cc1 | 102 to 106 °C
COc1cc(Nc2c(C#N)cnc3cc(-c4cccc(CCN5CCOCC5)c4)ccc23)c(Cl)cc1Cl | 146 to 148 °C
Cc1nc2cc(-c3ccc(C=C4SC(=O)NC4=O)cn3)cc(C3CCCCC3)c2o1 | 314 to 316 °C
CCCCCCCCCCCCCCCCCCOC(=O)CCC(=O)OC1CC(C)(C)N(C)C(C)(C)C1 | 38 to 40 °C
O=[N+]([O-])c1ccc2oc(-c3cccs3)nc2c1 | 186 to 188 °C
Clc1cc(Cl)cc(NCNc2cc(Cl)cc(Cl)c2)c1 | 153 to 156 °C
COc1cc2c(cc1-c1cncs1)-c1c(-c3cncs3)c3c(n1CC2)C(=O)N(C(C)(C)C)CCOC3 | 254 to 255 °C
CC(C)CCC1C(=O)N(c2c(F)c(F)nc(F)c2F)S(=O)(=O)N1C (stereo not given) | 80.5 to 81.5 °C
Cc1cc(-c2nncc3c(-c4ccco4)c(OCc4ncnn4C)nn23)no1 | 226 to 228 °C
COc1ccc(NC(=S)NCCO)c(C)c1 | 171 to 174 °C
Cc1ccc(C(=O)C(=O)c2ccncc2)cc1 | 65 °C
CCC(=O)Nc1ccc2c(Nc3cccc(Br)c3)ncnc2c1 | 282 to 283 °C
O=C1NC(=O)C(CCOc2ccc(F)cc2)S1 (stereo not given) | 94 to 96 °C

SMILES | melting point
COc1ccc(C2NCCS2)cc1 (stereo not given) | 94 to 95 °C
O=S(=O)(NCC1CCCO1)c1ccc(Nc2nc(OCC3CCCCC3)c3nc[nH]c3n2)cc1 (stereo not given) | 134 to 136 °C
O=C(CCc1ccc2cccc(O)c2n1)NO | 165 to 167 °C
CON(CCCc1ccc(Cl)c(Cl)c1)C(=O)C1=C(O)C(=O)N(C)C1 | 106 to 108 °C
COc1ccc(NC2=NN(c3cccc(C(F)(F)F)c3)CC2)cc1 | 127 to 128 °C
O=C(CC(=O)C1CC1)c1cccnc1 | 69 to 70 °C
Clc1ccc(CN2CCOCC2)c(N=C2CCCCN2)c1 | 121 to 122 °C
C1=C(c2c[nH]c3ccccc23)CCN(CC2COc3ccc4nocc4c3O2)C1 (stereo not given) | 110 °C
CC(=O)c1cc2c(s1)SCCN(CCCCN1CCN(c3ncccn3)CC1)C2=O | 118 to 120 °C
Cn1cc(C(=O)NCCCO)c(Nc2ccc(Br)cc2F)cc1=O | 78 to 83 °C
Cc1ccc(C)c(NC(=O)N2CCC(C#N)CC2)c1 | 187 to 190 °C
CCOC(=O)c1[nH]c2cc(Cl)cc(Cl)c2c1NCC(=O)c1ccc([N+](=O)[O-])cc1 | 283 to 286 °C
CN(C)c1ccc(NC(=O)N(C[C@@H]2CCC[C@H](CN(CC(C)(C)C)C(=O)Nc3ccc(N(C)C)cc3)C2)CC(C)(C)C)cc1 | 171 to 173 °C
CCC(CC)N(O)C(=O)NCCCCCCCCNC(=O)N(O)C(CC)CC | 89 to 90 °C
Cc1ccc(C)c(CNc2c(NC(C)(C)C)c(=O)c2=O)c1 | 246 to 247 °C
COC(=O)C1=NNC(C)=C(C(=O)OC)C1c1ccc(C)cc1 (stereo not given) | 180 °C
CC(=O)Oc1ccc(C(=O)c2nc3ccc(OC(C)=O)cc3s2)cc1 | 183 °C
O=C(Cn1ccnc1)c1nccs1 | 109 to 112 °C
CCCC(Cl)(Cl)C(NC(=O)c1ccc(Cl)cc1)Nc1c(Nc2cccnc2)c(=O)c1=O (stereo not given) | 258 to 259 °C
N#Cc1nn(-c2c(Cl)cc(C(F)(F)F)cc2Cl)cc1C1C=CCC1 (stereo not given) | 76 to 80 °C

SMILES | melting point
Nc1cc(Br)nc(C(=O)O)c1Cl | 182 to 183 °C
CCCCCCCCCCCCCCCCOC(=O)c1ccc(Cl)c(Nc2cc(=O)n(-c3c(Cl)cc(Cl)cc3Cl)n2C(=O)OCc2ccccc2)c1 | 128 to 131 °C
CCOC(=O)C=C(C)c1ccc(C=CC=C(C)CCC=C(C)C)cc1 | 32 to 32.5 °C
CCOc1cccc(CC(=O)O)c1OCCCc1cn(-c2ccc(Cl)cn2)nc1C(CC)CC | 92 to 93 °C
CCOC(=O)c1cn2c(ccc3c(Cl)cccc32)n1 | 193 to 194 °C
COc1ccc2c(C#N)c(-c3ncc(S(=O)(=O)NC(CF)CF)cn3)n(C3CCC3)c2n1 | 229 to 230 °C
COc1nc(Cl)cnc1NC(=O)OCC(C)C | 90 to 91 °C
O=[N+]([O-])c1cccc2c(Cl)c(Br)cnc12 | 135 to 136 °C
CC/C=C/Cn1c(Sc2cc(C)cc(C)c2)c(CC)c(=O)[nH]c1=O | 129 to 130 °C
CCCC(C)(CCC)C(=O)O[C@H]1C[C@H](O)C=C2C=C[C@H](C)[C@H](CC[C@@H]3C[C@@H](O)CC(=O)O3)[C@H]21 | 109 to 111 °C
CC1CC(c2c(S(C)(=O)=O)ccc(C(=O)c3cnn(C)c3O)c2Cl)=NO1 (stereo not given) | 230 to 235 °C
Nc1ccn(C2OC(CO)C(O)C2O)c(=O)c1F (stereo not given) | 234 to 236 °C
CCCn1c(=O)c2[nH]c(-c3ccoc3)nc2n(CCC)c1=O | 244 to 245 °C
O=C1CCc2cc(Cl)c([N+](=O)[O-])cc21 | 110 to 113 °C
CCC(=Cc1cccc([N+](=O)[O-])c1)[N+](=O)[O-] | 68 to 72 °C
Nc1n[nH]c2nc(C3CC3)cc(-c3ccc(Cl)c(Cl)c3)c12 | 256 to 258 °C
O=C(O)[C@@H]1C[C@H]2C[C@H](CCS(=O)(=O)O)CC[C@H]2CN1 (racemic) | 265 °C
COC(=O)c1ccc2nc(C(C)C)c(C(C)C)nc2c1 | 53 to 55 °C

Other lines, results leading:

melting point | SMILES
152 to 155 °C | COc1ccc(S(=O)(=O)Nc2ncccc2/C=C/c2ccccc2)cc1
64 to 65 °C | OC[C@H](F)[C@H](OCc1ccccc1)[C@H](OCc1ccccc1)[C@@H](O)C(F)(F)F
142 to 144 °C | C#CCN(C(=O)c1cn(C)cc1C(F)(F)F)c1cccc2c1C(C)CC2(C)C (stereo not given)
124 to 127 °C | Fc1ccc(-c2c(-c3ccccc3)oc3ncnc(Cl)c23)cc1
103 to 104 °C | CC(C)(C(=O)c1cccnc1)c1ccc(Cl)cc1Cl
138 to 140 °C | CCSC(C)(C)C(=O)CC(=O)Nc1cc([N+](=O)[O-])ccc1OC
191 to 192 °C | CC(C)Cn1c(CNC(=O)OC(C)(C)C)c(-c2ccccc2F)c2cc(C#N)ccc2c1=O
140 to 141 °C | COc1ccc2c(c1OC)CN(C=O)CCc1cc(OCc3ccccc3)ccc1CC2
> 270 °C | CCC(=O)c1[nH]c2cc(Cl)ccc2c1NC(C)=O
138 to 140 °C | COC1(c2cccc(Sc3ccc4c(ccc(=O)n4CC(F)(F)F)c3)c2)CCOCC1
160 to 162 °C | CC1(C)CSSC[C@@H](C(=O)O)NC1=O
89 to 90 °C | CCCCCCCCCCCC(=O)OC1CC(c2ccccc2)N(O)C(c2ccccc2)C1 (stereo not given)
136 to 139 °C | Cc1noc(=O)c2ccc(NC(=O)C(=O)CC3(c4cccc(C(F)(F)F)c4)CC3)cc12
109 to 110 °C | CCCc1cc(NC(=O)N2CCN(c3ccccc3OC)CC2)c(OC)nc1C
115 to 116 °C | CN(CCc1ccccc1)c1nc(=O)c2cccnc2s1
123 to 125 °C | Cc1nc(NCCCOc2cccc(CN3CCCCC3)c2)sc1C
86 to 88 °C | COc1ccc(C=O)c(Cl)c1OCc1ccccc1
95 to 96 °C | O=C(O)C(c1ccc(Cl)cc1)C1CC1 (stereo not given)
178 to 179 °C | CSC(C)(C(=O)O)c1ccc2oc(Cc3nc(-c4ccccc4)oc3C)cc2c1 (stereo not given)
132 °C | NC(=O)c1cccc(N2CCN(C(=O)c3c(-c4ccccc4)ccn3CC(=O)O)CC2)c1
100 °C | CC(=O)[C@@H]1C[C@H](C(=O)OC(C)(C)C)N(C(=O)CNC(=O)Nc2cccc(C)c2)[C@@H]1c1ccccc1 (racemic)

melting point | SMILES
181 to 185 °C | O=Nc1c(O)cc(N2CCCCC2)c2oc3ccccc3c12
194 to 196 °C | O=c1cc(CCl)nc2ccn(-c3ccccc3)n12
108 to 110 °C | CCOc1ccc(S(=O)(=O)Cl)cc1C(=O)O
118 to 120 °C | CC(=O)N(C)c1cccc(-c2ccc(Cl)nn2)c1
132 °C | CCOc1ccc(C(=O)NC/C=C/c2ccccc2)cc1
214 to 216 °C | COc1cc2c3c(nc4ccccc4c3c1)-c1ccccc1N2C
48 to 50 °C | CC1(C)C=C(CS(=O)(=O)c2ccccc2)C(C)(C)CC1
84 °C | CCOC(=O)COc1cc(OCc2ccccc2)ccc1C#N
201 to 203 °C | Nc1c(Br)cc(-c2nc3ccccc3s2)cc1Br
87 °C | CN(C)S(=O)(=O)n1ccc2cnccc21
86 °C | CC1(C)C=C(c2ccccn2)c2cc(F)c(F)cc2OC1
174 to 176 °C | COc1ccc(-c2cn(Cc3ccccc3)c(=O)c3ccccc23)cc1OC
168 °C | O=C1C(c2ccccc2)=C2CCCCC2N1c1ccc(O)cc1 (stereo not given)
156 °C | Nc1ccc2oc(-c3ccccc3)cc2c1
23.3 °C | CCCCc1ccc(-c2ccc(OC)cc2F)nc1
98 to 100 °C | CC(C)(C)OC(=O)N[C@@H](CC(N)=O)C(=O)N1CCN(Cc2ccccc2)CC1
242 to 244 °C | Clc1cc(N2CCOCC2)ccc1Nc1ncc2c(Cl)cc(-c3ccccc3)n2n1
77.5 to 79 °C | COc1ccc2c(c1)c1c(n2CCc2noc(-c3ccccc3)n2)CCN(C)C1
157 to 160 °C | CCN1C(C)CN(CC(=O)NC2(c3cc4ccccc4o3)C(=O)Nc3cc(Cl)cc(Cl)c32)CC1C (single isomer, unassigned; (+))
131 to 133 °C | O=c1[nH]c(=O)n(CCCCN2CCC(OC(c3ccccc3)c3ccccc3)CC2)c2ccccc12
146 to 149 °C | CCNC(=NS(=O)(=O)c1ccc(C#N)cc1)N1CC(CC)C=N1 (stereo not given)
